Test results taken from PubChem BioAssay AID2060888 (Molecular Pharmacology Branch, DTP, NCI, 2025).
One block for each compound: values may come before it.

Test system: 695427-040-R-J1-PDC complex spheroid viability
Assay: Anticancer human tumor 695427-040-R-J1-PDC patient-derived colon adenocarcinoma cell line growth inhibition [RAS]
Details: for IC50: curve of first compound; for viability, T/C: stronger effect = lower value
In short: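 Agents were tested in combination matrices in half-log decrements from a top concentration at or near clinical Cmax (10 microM if undetermined). Targets were multi-cell spheroids of tumour lines plus HUVEC and MSC stromal cells.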
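Further: viability read after seven days of drug exposure.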
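Wherever viability, T/C is given: 100% = DMSO vehicle control viability.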

IC50 (second compound 0.000949 µM): > 300 nM
IC50 (second compound 0.003 µM): > 300 nM
IC50 (second compound 0.00949 µM): > 300 nM
IC50 (second compound 0.03 µM): > 300 nM
IC50 (second compound 0.0949 µM): < 0.949 nM
IC50 (second compound 0.3 µM): < 0.949 nM
Structure (SMILES): CC1(C)CCC(Nc2ncc(C(F)(F)F)c(-c3c[nH]c4c(P(C)(C)=O)c(C#N)ccc34)n2)CN1 (stereo unspecified) + CCn1c(-c2cc(N3CCN(C)CC3)cnc2C(C)OC)c2c3cc(ccc31)-c1csc(n1)CC(NC(=O)C1CC1C)C(=O)N1CCCC(N1)C(=O)OCC(C)(C)C2
viability, T/C (second compound 0.000949 µM, first compound 0.000949 µM): 98%
viability, T/C (second compound 0.000949 µM, first compound 0.003 µM): 101%
viability, T/C (second compound 0.000949 µM, first compound 0.00949 µM): 84%
viability, T/C (second compound 0.000949 µM, first compound 0.03 µM): 92.2%
viability, T/C (second compound 0.000949 µM, first compound 0.0949 µM): 91.8%
viability, T/C (second compound 0.000949 µM, first compound 0.3 µM): 77.6%
viability, T/C (second compound 0.003 µM, first compound 0.000949 µM): 94.8%
viability, T/C (second compound 0.003 µM, first compound 0.003 µM): 85.5%
viability, T/C (second compound 0.003 µM, first compound 0.00949 µM): 77.9%
viability, T/C (second compound 0.003 µM, first compound 0.03 µM): 77.2%
viability, T/C (second compound 0.003 µM, first compound 0.0949 µM): 80.6%
viability, T/C (second compound 0.003 µM, first compound 0.3 µM): 69.3%
viability, T/C (second compound 0.00949 µM, first compound 0.000949 µM): 71.4%
viability, T/C (second compound 0.00949 µM, first compound 0.003 µM): 65.6%
viability, T/C (second compound 0.00949 µM, first compound 0.00949 µM): 74.2%
viability, T/C (second compound 0.00949 µM, first compound 0.03 µM): 61.7%
viability, T/C (second compound 0.00949 µM, first compound 0.0949 µM): 62.8%
viability, T/C (second compound 0.00949 µM, first compound 0.3 µM): 63.6%
viability, T/C (second compound 0.03 µM, first compound 0.000949 µM): 67.4%
viability, T/C (second compound 0.03 µM, first compound 0.003 µM): 60.7%
viability, T/C (second compound 0.03 µM, first compound 0.00949 µM): 61%
viability, T/C (second compound 0.03 µM, first compound 0.03 µM): 58.5%
viability, T/C (second compound 0.03 µM, first compound 0.0949 µM): 55.4%
viability, T/C (second compound 0.03 µM, first compound 0.3 µM): 51.4%
viability, T/C (second compound 0.0949 µM, first compound 0.000949 µM): 47.5%
viability, T/C (second compound 0.0949 µM, first compound 0.003 µM): 44.3%
viability, T/C (second compound 0.0949 µM, first compound 0.00949 µM): 47.9%
viability, T/C (second compound 0.0949 µM, first compound 0.03 µM): 47.4%
viability, T/C (second compound 0.0949 µM, first compound 0.0949 µM): 45.6%
viability, T/C (second compound 0.0949 µM, first compound 0.3 µM): 40.3%
viability, T/C (second compound 0.3 µM, first compound 0.000949 µM): 34.7%
viability, T/C (second compound 0.3 µM, first compound 0.003 µM): 41.8%
viability, T/C (second compound 0.3 µM, first compound 0.00949 µM): 31.7%
viability, T/C (second compound 0.3 µM, first compound 0.03 µM): 36.4%
viability, T/C (second compound 0.3 µM, first compound 0.0949 µM): 36.6%
viability, T/C (second compound 0.3 µM, first compound 0.3 µM): 33.4%

IC50 (second compound 0.000949 µM): 3420 nM
IC50 (second compound 0.003 µM): 1230 nM
IC50 (second compound 0.00949 µM): 613 nM
IC50 (second compound 0.03 µM): 117 nM
IC50 (second compound 0.0949 µM): < 31.6 nM
IC50 (second compound 0.3 µM): < 31.6 nM
Structure (SMILES): Cc1nc(N2CCC3(CC2)COC(C)C3N)c(CO)nc1Sc1ccnc(N)c1Cl (stereo unspecified) + CCn1c(-c2cc(N3CCN(C)CC3)cnc2C(C)OC)c2c3cc(ccc31)-c1csc(n1)CC(NC(=O)C1CC1C)C(=O)N1CCCC(N1)C(=O)OCC(C)(C)C2
viability, T/C (second compound 0.000949 µM, first compound 0.0316 µM): 98.8%
viability, T/C (second compound 0.000949 µM, first compound 0.1 µM): 93.1%
viability, T/C (second compound 0.000949 µM, first compound 0.316 µM): 84.9%
viability, T/C (second compound 0.000949 µM, first compound 1 µM): 79.5%
viability, T/C (second compound 0.000949 µM, first compound 3.16 µM): 49.7%
viability, T/C (second compound 0.000949 µM, first compound 10 µM): 26.9%
viability, T/C (second compound 0.003 µM, first compound 0.0316 µM): 86.3%
viability, T/C (second compound 0.003 µM, first compound 0.1 µM): 76.7%
viability, T/C (second compound 0.003 µM, first compound 0.316 µM): 52.7%
viability, T/C (second compound 0.003 µM, first compound 1 µM): 53.2%
viability, T/C (second compound 0.003 µM, first compound 3.16 µM): 49.9%
viability, T/C (second compound 0.003 µM, first compound 10 µM): 32.6%
viability, T/C (second compound 0.00949 µM, first compound 0.0316 µM): 71%
viability, T/C (second compound 0.00949 µM, first compound 0.1 µM): 69.8%
viability, T/C (second compound 0.00949 µM, first compound 0.316 µM): 49.6%
viability, T/C (second compound 0.00949 µM, first compound 1 µM): 50.9%
viability, T/C (second compound 0.00949 µM, first compound 3.16 µM): 33.9%
viability, T/C (second compound 0.00949 µM, first compound 10 µM): 30.6%
viability, T/C (second compound 0.03 µM, first compound 0.0316 µM): 63.9%
viability, T/C (second compound 0.03 µM, first compound 0.1 µM): 42.9%
viability, T/C (second compound 0.03 µM, first compound 0.316 µM): 48.2%
viability, T/C (second compound 0.03 µM, first compound 1 µM): 32.4%
viability, T/C (second compound 0.03 µM, first compound 3.16 µM): 29.8%
viability, T/C (second compound 0.03 µM, first compound 10 µM): 17.7%
viability, T/C (second compound 0.0949 µM, first compound 0.0316 µM): 46.5%
viability, T/C (second compound 0.0949 µM, first compound 0.1 µM): 40.5%
viability, T/C (second compound 0.0949 µM, first compound 0.316 µM): 25.2%
viability, T/C (second compound 0.0949 µM, first compound 1 µM): 29.1%
viability, T/C (second compound 0.0949 µM, first compound 3.16 µM): 23%
viability, T/C (second compound 0.0949 µM, first compound 10 µM): 18.9%
viability, T/C (second compound 0.3 µM, first compound 0.0316 µM): 27.5%
viability, T/C (second compound 0.3 µM, first compound 0.1 µM): 32.3%
viability, T/C (second compound 0.3 µM, first compound 0.316 µM): 28.7%
viability, T/C (second compound 0.3 µM, first compound 1 µM): 27.7%
viability, T/C (second compound 0.3 µM, first compound 3.16 µM): 24.4%
viability, T/C (second compound 0.3 µM, first compound 10 µM): 16%

IC50 (second compound 0.00316 µM): 37 nM
IC50 (second compound 0.01 µM): 39.8 nM
IC50 (second compound 0.0316 µM): 39.6 nM
IC50 (second compound 0.1 µM): 46.3 nM
IC50 (second compound 0.316 µM): 46.6 nM
IC50 (second compound 1 µM): 56.4 nM
Structure (SMILES): O=C(c1ccc(F)c(F)c1Nc1ccc(I)cc1F)N1CC(O)([C@@H]2CCCCN2)C1 + C=CC(=O)N1CCN(c2nc(OCC3CCCN3C)nc3c(F)c(-c4nc(N)cc(C)c4C(F)(F)F)c(Cl)cc23)C(C)C1
viability, T/C (second compound 0.00316 µM, first compound 0.00316 µM): 81.5%
viability, T/C (second compound 0.00316 µM, first compound 0.01 µM): 75.2%
viability, T/C (second compound 0.00316 µM, first compound 0.0316 µM): 50.1%
viability, T/C (second compound 0.00316 µM, first compound 0.1 µM): 32.4%
viability, T/C (second compound 0.00316 µM, first compound 0.316 µM): 13.7%
viability, T/C (second compound 0.00316 µM, first compound 1 µM): 6.97%
viability, T/C (second compound 0.01 µM, first compound 0.00316 µM): 85.8%
viability, T/C (second compound 0.01 µM, first compound 0.01 µM): 74.7%
viability, T/C (second compound 0.01 µM, first compound 0.0316 µM): 54.9%
viability, T/C (second compound 0.01 µM, first compound 0.1 µM): 30.2%
viability, T/C (second compound 0.01 µM, first compound 0.316 µM): 15.9%
viability, T/C (second compound 0.01 µM, first compound 1 µM): 2.53%
viability, T/C (second compound 0.0316 µM, first compound 0.00316 µM): 86.5%
viability, T/C (second compound 0.0316 µM, first compound 0.01 µM): 72%
viability, T/C (second compound 0.0316 µM, first compound 0.0316 µM): 58%
viability, T/C (second compound 0.0316 µM, first compound 0.1 µM): 27.8%
viability, T/C (second compound 0.0316 µM, first compound 0.316 µM): 15.4%
viability, T/C (second compound 0.0316 µM, first compound 1 µM): 4.49%
viability, T/C (second compound 0.1 µM, first compound 0.00316 µM): 87.7%
viability, T/C (second compound 0.1 µM, first compound 0.01 µM): 73.1%
viability, T/C (second compound 0.1 µM, first compound 0.0316 µM): 60.8%
viability, T/C (second compound 0.1 µM, first compound 0.1 µM): 32.6%
viability, T/C (second compound 0.1 µM, first compound 0.316 µM): 16.4%
viability, T/C (second compound 0.1 µM, first compound 1 µM): 5.49%
viability, T/C (second compound 0.316 µM, first compound 0.00316 µM): 82.8%
viability, T/C (second compound 0.316 µM, first compound 0.01 µM): 86.4%
viability, T/C (second compound 0.316 µM, first compound 0.0316 µM): 55.4%
viability, T/C (second compound 0.316 µM, first compound 0.1 µM): 31.6%
viability, T/C (second compound 0.316 µM, first compound 0.316 µM): 15.2%
viability, T/C (second compound 0.316 µM, first compound 1 µM): 2.92%
viability, T/C (second compound 1 µM, first compound 0.00316 µM): 78.8%
viability, T/C (second compound 1 µM, first compound 0.01 µM): 81.7%
viability, T/C (second compound 1 µM, first compound 0.0316 µM): 60.2%
viability, T/C (second compound 1 µM, first compound 0.1 µM): 37.8%
viability, T/C (second compound 1 µM, first compound 0.316 µM): 15.1%
viability, T/C (second compound 1 µM, first compound 1 µM): 3.14%
